Test system: GAPDH mRNA
Test: RNAi activity of GAPDH-targeting siRNA, expression of mRNA of GAPDH, HPRT1 internal control (Test Example 5)
Type: cell-based, human
Description: The RNAi activity of a GAPDH-targeting siRNA having 8-Br-dA at the 5′ end of the antisense strand was evaluated by measuring an inhibitory effect on the expression of mRNA of GAPDH as described below. In a culture dish (Multidish 24 wells, Cat. No. 142475, manufactured by Nunc, Inc.), human cervical cancer-derived cell line Hela cells (CCL-2, purchased from ATCC) were suspended in RPMI medium (Invitrogen Life Technologies, 11875093) containing 10% fetal bovine serum, and 500 μL of the resulting cell suspension was inoculated into each well to give 50000 cells/well. […]
The cells after introduction of the siRNA were cultured under the conditions of 37° C. and 5% CO2 for 24 hours. […] NM_000942) were subjected to a PCR reaction by the Taqman probe method using ABI 7900HT Fast (ABI), and the levels of amplified mRNAs of the respective genes were measured. […] Further, in the negative control group, the level of the mRNA of GAPDH and the level of the amplified mRNA of PPIB were measured in the same manner, respectively, and a semi-quantitative level of the mRNA of GAPDH was calculated using the level of the amplified mRNA of PPIB as an internal control.
The activity of the GAPDDH-targeting siRNA obtained in Example 6 was evaluated by measuring an inhibitory effect on the expression of mRNA of GAPDH in the same manner as in Test Example 4. […]

1096-5-F-dU: GAPDH-targeting siRNA, antisense XUACCAGGAAAUGAGCUUGAC, X = 5-fluoro-2′-deoxyuridine monophosphate
level of target mRNA (relative ratio with negative control group taken as 1, concentration 1 pM): 0.183
level of target mRNA (relative ratio with negative control group taken as 1, concentration 10 pM): 0.059

Source: US10342819B2, “Oligonucleotide having non-natural nucleotide at 5′-terminal thereof” (Kyowa Hakko Kirin Co., Ltd., priority 2014, dated 2019)
